{
  "source": "patent US8871715B2",
  "about": "“Use of selenium compounds, especially selenium yeasts for altering cognitive function” (Alltech, Inc., priority 2005, dated 2014)",
  "assay_type_in_all_cases": "in vivo, mouse (male C57BL/6J)",
  "key": {"[1]": {"test": "Body weight of mice on selenium diets", "text": "(§1) Animal Care. Male C57BL/6J mice were housed singly and started on the experimental diets described below immediately after weaning (21 days of age). The mice were maintained in the Shared Aging Rodent Facility at the William S. Middleton Memorial Veterans Administration Medical Center (Madison, Wis.). Temperature and humidity were maintained at constant levels. Room light was controlled to provide 12-hr cycles of light and dark.\nExperimental diets were created by Harlan Teklad (Madison, Wis.). Selenium content of the diets was determined by Covance Inc. (Madison, Wis.). […]\nThus, it was an object of the present invention to determine whether compositions and methods of the present invention could alter the expression levels (e.g., mRNA levels) of various genes. One group of genes analyzed were genes classically associated with selenium. As described above, the expression levels of genes were analyzed between mice with and without dietary selenium, or, between mice fed different sources of selenium) (See, e.g., Table 1, below)."}, "[2]": {"tested_on": "brain (cerebral cortex) gene expression", "test": "Gene expression in mouse brain (cerebral cortex, microarray) with dietary selenium vs selenium deficient diet", "details": "diet 1 ppm Se for 100 days vs selenium deficient diet", "text": "as §1\n(§2) Experimental diets were created by Harlan Teklad (Madison, Wis.). Selenium content of the diets was determined by Covance Inc. (Madison, Wis.). Five (5) animals were included in each of the following treatment groups: a diet deficient in selenium (SD); a diet supplemented with selenomethionine (SM, obtained from Sigma, St. Louis, Mo.) such that the final selenium content of the diet was one (1) part per million; a diet supplemented with sodium selenite (SS, Sigma) such that the final concentration of selenium in this diet was one (1) part per million; or a diet supplemented with the yeast selenium SEL-PLEX (SP, Alltech, Lexington, Ky.), such that the final concentration of selenium in this diet was one (1) part per million. SEL-PLEX. Mice were provided with water and their respective diet ad libitum for 100 days. Diets were stored at the dark at 4° C. and fresh diet was added to feeder twice weekly.\n(§3) Tissue sample preparation and microarray analysis. Mice were killed at 100 days of age by cervical dislocation. For intestinal expression studies, the intestine was flushed twice with saline solution and small intestine was measured and divided in three equal segments. A 3-cm region of the middle segment of the small intestine corresponding to the jejunum (˜300 mg of tissue) was cut and rinsed again with physiological saline to completely remove contents, flash frozen in liquid nitrogen and stored at −80° C. For brain (e.g., cerebral cortex) studies, the cerebral cortex was separated from the surrounding brain tissue and was flash frozen in liquid nitrogen and stored at −80° C.\n(§4) Total RNA was isolated from using the guanidinium isothiocyanate method of TRIZOL (Life Technologies, Grand Island, N.Y.) and individual samples were used for gene expression profiles. Total RNA was cleaned up by RNeasy Mini kit (Qiagen, Valencia, Calif.). Target RNA was prepared by converting […] total RNA into double-strand cDNA using GeneChip Expression 3′-Amplification Reagents One-Cycle cDNA Synthesis Kit (Affymetrix, Santa Clara, Calif.) with a T7-(dT)24 primer incorporating a T7 RNA polymerase promoter. After cleaning up double-strand cDNA using Genechip Sample Cleanup Module (Affymetrix, Santa Clara, Calif.), biotin-labeled cRNA was synthesized from double-strand cDNA using GeneChip Expression 3′-Amplification Reagents for IVT Labeling (Affymetrix, Santa Clara, Calif.). The biotin-labeled cRNA was cleaned up using Genechip Sample Cleanup Module and was fragmented by heating (35 min at 94° C.).\n(§5) Fifteen (15) μg of cRNA fragments were hybridized (16 h at 45° C.) to Mouse Genome 430 2.0 Array (Affymetrix, Santa Clara, Calif.) using GeneChip Hybridization Oven 640. After hybridization, the gene chips were automatically washed and stained with streptavidin-phycoerythrin biotinylated anti-streptavidin using Affymetrix GeneChip Fluidics Station 450. The DNA chips were scanned with Affymetrix GeneChip Scanner 3000 (Affymetrix, Santa Clara, Calif.) to detect the cell signal intensities by laser. All calculations were performed with Affymetrix GeneChip Operating Software (GCOS) version 1.3 after scanning.\n(§6) • 1. The spreadsheet containing probe set identifiers and signal intensity values was opened in Microsoft Excel (version 11.1.1 for the Macintosh OS-X operating system) and summary statistics were generated (mean signal intensity for each treatment group, standard error of the mean). Two-tailed t-tests (equal variance) were performed for the following treatment groups: SM vs. SD, SS vs. SD, and SP vs. SD. […]"}, "[3]": {"tested_on": "gene expression in the mouse intestine", "test": "Gene expression in mouse intestine (microarray) with dietary selenium vs selenium deficient diet", "details": "diet 1 ppm Se for 100 days vs selenium deficient diet", "text": "as §1, §2, §3, §4, §5, §6"}},
  "note": "Marks after values point to notes of the source that are not given here.",
  "data": [
    {"smiles": "C[Se]CC[C@H](N)C(=O)O", "note": "[SeM, selenomethionine]", "values": [
      {"measurement": "body weights of mice", "setting": "[1]; mouse, in vivo", "value": "No significant differences"},
      {"measurement": "CORS-26 expression, fold reduction", "setting": "[2]; cerebral cortex", "value": "no alteration"},
      {"measurement": "Complement component 1, q subcomponent, gamma polypeptide, C1qg expression, FC", "setting": "[2]; cerebral cortex", "value": 1.0, "unit": "fold"},
      {"measurement": "expression of complement component genes (summary in words)", "setting": "[2]; cerebral cortex", "value": "did not provide a statistically significant alteration"},
      {"measurement": "Glutathione Peroxidase 1 gene expression, fold change (FC)", "setting": "[3]", "value": 4.9, "unit": "fold"},
      {"measurement": "Glutathione Peroxidase 3 gene expression, fold change (FC)", "setting": "[3]", "value": 4.6, "unit": "fold"},
      {"measurement": "Glyoxalase 1 (Glo1) expression, fold reduction", "setting": "[3]", "value": "not significantly affected"},
      {"measurement": "Growth arrest and DNA-damage-inducible 45 gamma (Gadd45g) expression, FC", "setting": "[3]", "value": "−1.5", "unit": "fold"},
      {"measurement": "LIM homeobox protein 8 gene (Lhx8) expression, fold upregulation", "setting": "[3]", "value": "not significantly different"},
      {"measurement": "Neurogenin 3 (Neurog3) expression, fold upregulation", "setting": "[3]", "value": "no significant alteration"},
      {"measurement": "Prohibitin (Phb) expression, fold upregulation", "setting": "[3]", "value": 1.6, "unit": "fold"},
      {"measurement": "SelR (Selenoprotein X1) gene expression, fold upregulation", "setting": "[3]", "value": "not significantly affected"},
      {"measurement": "Selenoprotein W (SelW) expression, fold upregulation", "setting": "[3]", "value": "not significantly altered"},
      {"measurement": "Thioredoxin Reductase 1 gene expression, fold increase", "setting": "[3]", "value": 1.8, "unit": "fold"},
      {"measurement": "expression pattern of GST genes (summary in words)", "setting": "[3]", "value": "no alteration"},
      {"measurement": "selenoprotein N1 (Sepn1) gene expression, fold increase", "setting": "[3]", "value": "not significantly affected"},
      {"measurement": "sprouty homolog 2 gene (Spry2) expression, fold reduction", "setting": "[3]", "value": "no alteration"},
      {"measurement": "transforming growth factor beta 2 (TGF-β2) expression, fold upregulation", "setting": "[3]", "value": "not altered"},
      {"measurement": "type II iodothyronine deiodinase (Dio2) expression, fold down-regulation", "setting": "[3]", "value": "no ability to alter"},
      {"measurement": "Gadd45g1p expression in intestinal tissue (in words)", "setting": "[3]; p<0.05", "value": "decreased expression"}
    ]},
    {"smiles": "O=[Se](O)O", "note": "[Sod-sel, sodium selenite]", "values": [
      {"measurement": "body weights of mice", "setting": "[1]; diets with 1 ppm Se vs selenium deficient diet, FIG. 1", "value": "No significant differences"},
      {"measurement": "Gadd45b expression, FC", "setting": "[2]; brain", "value": "−1.39* fold"},
      {"measurement": "Gadd45g1p (Growth arrest and DNA-damage inducible 45 gamma interacting protein) expression, FC", "setting": "[2]; brain", "value": "−1.12", "unit": "fold"},
      {"measurement": "Gst mu 7 (Gstm7) expression, FC", "setting": "[2]; brain", "value": "−1.25* fold"},
      {"measurement": "Gst pi 1 (Gstp1) expression, FC", "setting": "[2]; brain", "value": 1.02, "unit": "fold"},
      {"measurement": "Gst zeta 1 (Gstz1) expression, FC", "setting": "[2]; brain", "value": "−1.3", "unit": "fold"},
      {"measurement": "Amyloid beta (A4) precursor protein-binding, family A, member 1 (Apba1) expression, FC", "setting": "[2]; cerebral cortex", "value": "−1.41", "unit": "fold"},
      {"measurement": "Amyloid beta (A4) precursor protein-binding, family B, member 1 (Apbb1 or Fe65) expression, FC", "setting": "[2]; cerebral cortex", "value": "−1.32* fold"},
      {"measurement": "Amyloid beta (A4) precursor-like protein (Aplp 1) expression, FC", "setting": "[2]; cerebral cortex", "value": "−1.55* fold"},
      {"measurement": "Cathepsin B expression, FC", "setting": "[2]; cerebral cortex", "value": "−1.13* fold"},
      {"measurement": "Cathepsin D expression, FC", "setting": "[2]; cerebral cortex", "value": "−1.24* fold"},
      {"measurement": "Cathepsin O expression, FC", "setting": "[2]; cerebral cortex", "value": "−1.18", "unit": "fold"},
      {"measurement": "Cathepsin Z expression, FC", "setting": "[2]; cerebral cortex", "value": "−1.30* fold"},
      {"measurement": "Complement component 1, q subcomponent binding protein, C1qbp expression, FC", "setting": "[2]; cerebral cortex", "value": 1.11, "unit": "fold"},
      {"measurement": "Complement component 1, q subcomponent, alpha polypeptide, C1qa expression, FC", "setting": "[2]; cerebral cortex", "value": "−1.18", "unit": "fold"},
      {"measurement": "Complement component 1, q subcomponent, beta polypeptide, expression, FC", "setting": "[2]; cerebral cortex", "value": "−1.35", "unit": "fold"},
      {"measurement": "Complement component 1, q subcomponent, gamma polypeptide, C1qg expression, FC", "setting": "[2]; cerebral cortex", "value": "−1.07", "unit": "fold"},
      {"measurement": "Complement component 1, r subcomponent, C1r expression, FC", "setting": "[2]; cerebral cortex", "value": "−1.29", "unit": "fold"},
      {"measurement": "Junb expression, FC", "setting": "[2]; cerebral cortex", "value": "−1.59", "unit": "fold"},
      {"measurement": "Nicastrin expression, FC", "setting": "[2]; cerebral cortex", "value": "−1.67* fold"},
      {"measurement": "Presenilin 1 expression, FC", "setting": "[2]; cerebral cortex", "value": "−1.11", "unit": "fold"},
      {"measurement": "Cu chaperone for SOD (CCS) expression, fold enhancement", "setting": "[3]", "value": 1.28, "unit": "fold"},
      {"measurement": "Glutathione Peroxidase 1 gene expression, fold change (FC)", "setting": "[3]", "value": 4.1, "unit": "fold"},
      {"measurement": "Glutathione Peroxidase 3 gene expression, fold change (FC)", "setting": "[3]", "value": 3.5, "unit": "fold"},
      {"measurement": "Glutathione S-transferase, alpha 3 (Gsta3) expression, FC", "setting": "[3]", "value": "−2.3", "unit": "fold"},
      {"measurement": "Glutathione S-transferase, mu 1 (Gstm1) expression, FC", "setting": "[3]", "value": "−2.4", "unit": "fold"},
      {"measurement": "Glutathione S-transferase, mu 2 (Gstm2) expression, FC", "setting": "[3]", "value": "−2.1", "unit": "fold"},
      {"measurement": "Glutathione S-transferase, mu 3 (Gstm3) expression, FC", "setting": "[3]", "value": "−2.7", "unit": "fold"},
      {"measurement": "Glutathione S-transferase, theta 2 (Gstt2) expression, FC", "setting": "[3]", "value": "−1.3", "unit": "fold"},
      {"measurement": "Growth arrest and DNA-damage-inducible 45 gamma (Gadd45g) expression, FC", "setting": "[3]", "value": "−2.0", "unit": "fold"},
      {"measurement": "SOD1 expression, fold enhancement", "setting": "[3]", "value": 1.92, "unit": "fold"},
      {"measurement": "SelR (Selenoprotein X1) gene expression, fold upregulation", "setting": "[3]", "value": 1.3, "unit": "fold"},
      {"measurement": "Selenoprotein W (SelW) expression, fold upregulation", "setting": "[3]", "value": 5.1, "unit": "fold"},
      {"measurement": "Thioredoxin Reductase 1 gene expression, fold increase", "setting": "[3]", "value": 1.7, "unit": "fold"},
      {"measurement": "Type 1 iodothyronine deiodinase expression level, fold increase", "setting": "[3]", "value": 2.8, "unit": "fold"}
    ]}
  ]
}
